Measurements from patent US20230013669A1, “Antibacterial Treatment Using a Cannabinoid and an Active Agent” (priority 2019, published 2023).
Values joined by “and” are separate entries in the source; they are usually repeats but may differ in a detail not shown here. Identical values can stand only once.

Tested on: Pseudomonas aeruginosa ATCC 27853 (GN_042)
Assay: Synergy of cannabidiol with cell-wall disrupting agent (CBD MIC in combination, FICI)
Format: cell-based
Protocol: The compounds were stored short term at 4° C.
Analysis was performed using Microsoft Excel.

[1] = CBD with Ceftazidime, Pseudomonas aeruginosa ATCC 27853

C=C(C)C1CCC(C)=CC1c1c(O)cc(CCCCC)cc1O (centres unmarked) [Cannabidiol, 2-[3-methyl-6-(1-methylethenyl)-2-cyclohexen-1-yl]-5-pentyl-1,3-benzenediol]
CBD MIC with Aztreonam (Aztreonam at 4 μg/mL): 0.001 µg/mL
FICI (CBD with Aztreonam at 0.25 μg/mL, CBD MIC taken as 256 μg/mL): 1.0625
FICI (CBD with Aztreonam at 1 μg/mL, CBD MIC taken as 256 μg/mL): 1.25
FICI (CBD with Aztreonam at 2 μg/mL, CBD MIC taken as 256 μg/mL): 0.5004 and 0.5039
FICI (CBD with Aztreonam at 4 μg/mL, CBD MIC taken as 256 μg/mL): 1
FICI range (CBD with Aztreonam, Synergy table (Table 76)): 0.5
FICI range (CBD with Aztreonam, all tested concentrations (Table 74)): 0.5-1.25
FICI (CBD with Cefepime at 0.015 μg/mL, CBD MIC taken as 256 μg/mL): 1
FICI (CBD with Cefepime at 0.031 μg/mL, CBD MIC taken as 256 μg/mL): 1
FICI (CBD with Cefepime at 0.062 μg/mL, CBD MIC taken as 256 μg/mL): 1
FICI (CBD with Cefepime at 0.25 μg/mL, CBD MIC taken as 256 μg/mL): 1.001
FICI (CBD with Cefepime at 0.5 μg/mL, CBD MIC taken as 256 μg/mL): 1.002
FICI range (CBD with Cefepime, all tested concentrations (Table 79)): 1-1
FICI (CBD with Cefotetan at 4 μg/mL, CBD MIC taken as 256 μg/mL): 1.016
FICI (CBD with Cefotetan at 16 μg/mL, CBD MIC taken as 256 μg/mL): 1.0625
FICI (CBD with Cefotetan at 64 μg/mL, CBD MIC taken as 256 μg/mL): 1.25
FICI (CBD with Cefotetan at 128 μg/mL, CBD MIC taken as 256 μg/mL): 1.5
FICI range (MIC table) (CBD with Cefotetan, Pseudomonas aeruginosa ATCC 27853): 1.02-1.5
FICI (CBD with Ceftazidime at 0.25 μg/mL, Pseudomonas aeruginosa ATCC 27853): 1.0625
FICI (CBD with Ceftazidime at 1 μg/mL, Pseudomonas aeruginosa ATCC 27853): 1.25
FICI (CBD with Ceftazidime at 2 μg/mL, Pseudomonas aeruginosa ATCC 27853): 0.5
FICI (CBD with Ceftazidime at 4 μg/mL, Pseudomonas aeruginosa ATCC 27853): 1
FICI range (MIC table) [1]: 0.5-1.25
FICI range (Synergy table) [1]: 0.5
FICI (CBD with Cefuroxime at 4 μg/mL, Pseudomonas aeruginosa ATCC 27853): 1.016
FICI (CBD with Cefuroxime at 16 μg/mL, Pseudomonas aeruginosa ATCC 27853): 1.0625
FICI (CBD with Cefuroxime at 64 μg/mL, Pseudomonas aeruginosa ATCC 27853): 1.25
FICI (CBD with Cefuroxime at 128 μg/mL, Pseudomonas aeruginosa ATCC 27853): 1.5
FICI (CBD with Colistin at 0.031 μg/mL, Pseudomonas aeruginosa ATCC 27853): 1.031
FICI (CBD with Colistin at 0.062 μg/mL, Pseudomonas aeruginosa ATCC 27853): 1.062
FICI (CBD with Colistin at 0.25 μg/mL, Pseudomonas aeruginosa ATCC 27853): 1.25
FICI (CBD with Colistin at 0.5 μg/mL, Pseudomonas aeruginosa ATCC 27853): 1.5
FICI (CBD with Colistin at 1 μg/mL, Pseudomonas aeruginosa ATCC 27853): 1
FICI range (MIC table) (CBD with Colistin, Pseudomonas aeruginosa ATCC 27853): 1-1.5
FICI range (MIC table) (CBD with MCC_6442, Pseudomonas aeruginosa ATCC 27853): 1-1.5
FICI (CBD with MCC_6442 at 0.25 μg/mL, Pseudomonas aeruginosa ATCC 27853): 1.0625
FICI (CBD with MCC_6442 at 1 μg/mL, Pseudomonas aeruginosa ATCC 27853): 1.25
FICI (CBD with MCC_6442 at 2 μg/mL, Pseudomonas aeruginosa ATCC 27853): 1.5
FICI (CBD with MCC_6442 at 4 μg/mL, Pseudomonas aeruginosa ATCC 27853): 1
FICI (CBD with Octapeptin C4 at 0.25 μg/mL, CBD MIC taken as 256 μg/mL): 1.0625
FICI (CBD with Octapeptin C4 at 0.5 μg/mL, CBD MIC taken as 256 μg/mL): 1.0625
FICI (CBD with Octapeptin C4 at 1 μg/mL, CBD MIC taken as 256 μg/mL): 1.25
FICI (CBD with Octapeptin C4 at 2 μg/mL, CBD MIC taken as 256 μg/mL): 1.25 and 1.5
FICI (CBD with Octapeptin C4 at 4 μg/mL, CBD MIC taken as 256 μg/mL): 0.5 and 1
FICI (CBD with Octapeptin C4 at […], CBD MIC taken as 256 μg/mL): 1.016
FICI range (CBD with Spero SPR206, 1st of 3 experiments): 1-4
FICI range (CBD with Spero SPR206, 3rd of 3 experiments): 1.13-5
FICI (CBD with Spero SPR206 at 0.25 μg/mL, 1st of 3 experiments, CBD MIC taken as 256 μg/mL): 1.25
FICI (CBD with Spero SPR206 at 0.25 μg/mL, 3rd of 3 experiments, CBD MIC taken as 256 μg/mL): 1.25
FICI (CBD with Spero SPR206 at 0.5 μg/mL, 1st of 3 experiments, CBD MIC taken as 256 μg/mL): 1.5
FICI (CBD with Spero SPR206 at 0.5 μg/mL, 3rd of 3 experiments, CBD MIC taken as 256 μg/mL): 1.5
FICI (CBD with Spero SPR206 at 1 μg/mL, 1st of 3 experiments, CBD MIC taken as 256 μg/mL): 1
FICI (CBD with Spero SPR206 at 1 μg/mL, 3rd of 3 experiments, CBD MIC taken as 256 μg/mL): 2
FICI (CBD with Spero SPR206 at 2 μg/mL, 1st of 3 experiments, CBD MIC taken as 256 μg/mL): 2
FICI (CBD with Spero SPR206 at 2 μg/mL, 3rd of 3 experiments, CBD MIC taken as 256 μg/mL): 3
FICI (CBD with Spero SPR206 at 4 μg/mL, 1st of 3 experiments, CBD MIC taken as 256 μg/mL): 4
FICI (CBD with Spero SPR206 at 4 μg/mL, 3rd of 3 experiments, CBD MIC taken as 256 μg/mL): 5
FICI (CBD with Ticarcillin at 2 μg/mL, Pseudomonas aeruginosa ATCC 27853): 1.0625
FICI (CBD with Ticarcillin at 4 μg/mL, Pseudomonas aeruginosa ATCC 27853): 1.25
FICI (CBD with Ticarcillin at 8 μg/mL, Pseudomonas aeruginosa ATCC 27853, listed as CBD): 1.25 and 1.5
FICI (CBD with Ticarcillin at 16 μg/mL, Pseudomonas aeruginosa ATCC 27853, listed as CBD): 0.5 and 1
FICI (CBD with Ticarcillin at 32 μg/mL, Pseudomonas aeruginosa ATCC 27853, listed as CBD): 1 and 2
FICI (CBD with Ticarcillin at 64 μg/mL, Pseudomonas aeruginosa ATCC 27853, listed as CBD): 2 and 4
FICI range (Synergy table) (CBD with Ticarcillin, Pseudomonas aeruginosa ATCC 27853): 0.5
CBD MIC with Cefotetan (Cefotetan at 4 μg/mL): >32 µg/mL
CBD MIC with Cefotetan (Cefotetan at 4 μg/mL, Pseudomonas aeruginosa ATCC 27853): >256 µg/mL
CBD MIC with Cefotetan (Cefotetan at 8 μg/mL): >32 µg/mL
CBD MIC with Cefotetan (Cefotetan at 8 μg/mL, Pseudomonas aeruginosa ATCC 27853): >256 µg/mL
CBD MIC with Cefotetan (Cefotetan at 16 μg/mL): >32 µg/mL
CBD MIC with Cefotetan (Cefotetan at 16 μg/mL, Pseudomonas aeruginosa ATCC 27853): >256 µg/mL
CBD MIC with Cefotetan (Cefotetan at 32 μg/mL): >32 µg/mL
CBD MIC with Cefotetan (Cefotetan at 32 μg/mL, Pseudomonas aeruginosa ATCC 27853): >256 µg/mL
CBD MIC with Cefotetan (Cefotetan at 64 μg/mL): >32 µg/mL
CBD MIC with Cefotetan (Cefotetan at 64 μg/mL, Pseudomonas aeruginosa ATCC 27853): >256 µg/mL
